Reference: patent publication US20240285681A1, “CELLS FOR TREATING INFECTIONS” (LIfT BioSciences Ltd, priority 2019, published 2024)
Several values for one entry are separate records, joined by “and”; a condition that tells them apart may be missing. Equal entries are not always repeated.

Tests used:
MRSA USA300 = test: Neutrophil bacterial co-culture (BKA) assay, MRSA USA300; type: cell-based, Staphylococcus aureus; conditions: 2 hours
Procedure: The “MRSA assay” is carried out as follows: • a. admixing 100 μl of a 1×10^7 CFU/ml solution of MRSA strain USA300 in RPMI 1640 with 100 μl of a solution containing 1×10^7 granulocytes/ml; • b. incubating the admixture at 37° C. under shaking at 120 rpm; • c. taking a sample at 2 hours (diluting in sterile RPMI as needed) and plating on Tryptic Soy Agar; • d. incubating the plated sample at 37° C. for 24 hours; • e. counting the bacterial colonies; and • f. quantifying the total CFU content; and • g. calculating the % of MRSA cells killed based on the CFU content in steps a. and f using the formula ((CFU contentno effector−CFU contenteffector)/CFU contentno effector)×100.
(§1) 24 hours prior to use, overnight cultures (ONCs) of all strains (P. aeruginosa: multidrug resistant Cystic Fibrosis isolate RP73 (Di Lorenzo et al (2015), Mol. Immunol., 63, 166-175); MRSA: Community acquired strain USA300 (Diep et al (2006), Lancet, 367, 731-739)) were prepared by inoculating 20 ml tryptic soy broth (3% w/v TSB in deionised water) with 2 stock cryobeads for 24 hours at 37° C., under shaking at 120 rpm (Sciquip mini incu shake). After incubation, ONCs were centrifuged at 2,800 g for 20 minutes at 4° C. The pellet was then resuspended in 10 ml Roswell Park Memorial Institute (RPMI) 1640 medium (commercially available from Sigma-Aldrich, UK). Optical density readings were then taken for all strains and diluted in RPMI 1640 to an OD of 0.015, equivalent of 1×10^7 cfu/ml.
Bacterial cultures were prepared as described above. […] Post incubation, bacterial colonies were manually counted and the total cfu content quantified.
To validate an in vitro model of neutrophil bacterial killing activity (BKA) assay, increasing concentrations of neutrophils (1×10^5, 5×10^5 and 1×10^6 neutrophils per sample) were incubated with 1×10^6 cfu/ml of the P. aeruginosa strain RP73 under suspension. […] Post incubation, bacterial colonies were manually counted and the total cfu content quantified.

P. aeruginosa RP73 = test: Neutrophil bacterial co-culture (BKA) assay, P. aeruginosa RP73; type: cell-based; conditions: 2 hours
Procedure: as §1
Bacterial cultures were prepared as described above. 100 μl of 1×10^7 cfu/ml bacterial strains were added to either 100 μl RPMI 1640, 100 μl 1×10^7/ml neutrophils or increasing concentrations of Tobramycin (for P. aeruginosa) or Vancomycin (for MRSA) (1, 10, 100 μg/ml). These cultures were then incubated at 37° C., under shaking at 120 rpm for up to 24 hours. At 2, 6 and 24 hours, 20 μl aliquots of each sample were diluted in sterile RPMI at 1/10, 1/100, 1/1000, 1/10000, 1/100000 and 1/1000000 and plated on Tryptic Soy Agar (TSA) and incubated at 37° C. for 24 hours. Post incubation, bacterial colonies were manually counted and the total cfu content quantified.
To validate an in vitro model of neutrophil bacterial killing activity (BKA) assay, increasing concentrations of neutrophils (1×10^5, 5×10^5 and 1×10^6 neutrophils per sample) were incubated with 1×10^6 cfu/ml of the P. aeruginosa strain RP73 under suspension. These neutrophil/bacterial cultures were then incubated for 2 hours at 37° C. under 120 rpm of shaking. […] Post incubation, bacterial colonies were manually counted and the total cfu content quantified.

CN[C@H](CC(C)C)C(=O)N[C@H]1C(=O)N[C@@H](CC(N)=O)C(=O)N[C@H]2C(=O)N[C@H]3C(=O)N[C@H](C(=O)N[C@H](C(=O)O)c4cc(O)cc(O)c4-c4cc3ccc4O)[C@H](O)c3ccc(c(Cl)c3)Oc3cc2cc(c3O[C@@H]2O[C@H](CO)[C@@H](O)[C@H](O)[C@H]2O[C@H]2C[C@](C)(N)[C@H](O)[C@H](C)O2)Oc2ccc(cc2Cl)[C@H]1O [Vancomycin]
Bacterial Killing (%) (MRSA USA300; antibiotic 1 μg/ml): 5.73±3.70% and 5.73% | Bacterial Killing (%) (MRSA USA300; antibiotic 100 μg/ml): 92.58±2.01%

NC[C@H]1O[C@H](O[C@H]2[C@H](O)[C@@H](O[C@H]3O[C@H](CO)[C@@H](O)[C@H](N)[C@H]3O)[C@H](N)C[C@@H]2N)[C@H](N)C[C@@H]1O [Tobramycin]
Bacterial Killing (%) (P. aeruginosa RP73; antibiotic 1 μg/ml): 6.60±2.22% and 6.60% | Bacterial Killing (%) (P. aeruginosa RP73; antibiotic 10 μg/ml): 77.78±13.40% and 77.78% | Bacterial Killing (%) (P. aeruginosa RP73; antibiotic 100 μg/ml): 95.37±2.87% | Bacterial Killing (%) (MRSA USA300; antibiotic 10 μg/ml): 25.05±6.13%
